# Read-outs that look alike come from different tables or passages of the source.
# Target: T1, acetylcholine muscarinic M1 receptor (Homo sapiens, UniProt P11229)
# T1 construct: expressed in transfected cells; host or cells: CHOnfat cells (CHO cells with an NFAT reporter) expressing hM1, kept under Geneticin selection
# T1 sequence (P11229 1-460): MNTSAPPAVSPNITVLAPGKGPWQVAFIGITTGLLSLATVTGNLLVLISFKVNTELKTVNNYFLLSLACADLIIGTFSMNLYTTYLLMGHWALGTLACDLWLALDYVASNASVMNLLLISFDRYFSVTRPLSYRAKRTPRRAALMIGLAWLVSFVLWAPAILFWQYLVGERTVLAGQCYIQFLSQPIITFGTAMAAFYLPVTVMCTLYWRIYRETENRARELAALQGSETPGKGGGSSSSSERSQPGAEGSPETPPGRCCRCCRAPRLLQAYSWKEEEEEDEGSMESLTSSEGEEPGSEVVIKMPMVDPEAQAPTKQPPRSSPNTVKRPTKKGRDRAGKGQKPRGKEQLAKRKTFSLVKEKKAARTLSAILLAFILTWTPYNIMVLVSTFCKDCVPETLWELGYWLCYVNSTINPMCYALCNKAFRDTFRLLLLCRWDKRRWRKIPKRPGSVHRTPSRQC
# Test: muscarinic FLIPR assay: intracellular calcium in CHOnfat/hM1 cells, potentiation of EC20 acetylcholine
# Assay type: cell-based
# Settings: EC20 acetylcholine (3 nM final)
# Protocol: The assay studies the effect of one or several concentrations of test compounds on basal or acetylcholine-stimulated Ca^2+ levels using FLIPR.
# Compounds are prepared and subjected to a preincubation period of […]. Thereafter, a single EC20 concentration of acetylcholine is added to each well (3 nM final). The intracellular Ca^2+ level of each sample is measured and compared to an acetylcholine control to determine any modulatory activity.
# Cells: CHOnfat/hM1, hM2, hM3 or hM4 cells are plated 24 hr before the assay at a density of 18,000 cells/well (100 μL) in a 384 well plate. CHOnfat/hM1 and CHOnfat/hM3 Growth Medium: 90% DMEM (Hi Glucose); 10% HI FBS; 2 mM L-glutamine; 0.1 mM NEAA; Pen-Strep; and 1 mg/ml Geneticin, are added. For M2Gqi5CHOnfat and M4Gqi5CHOnfat cells, an additional 600 ug/ml hygromycin is added.
# Equipment: 384 well plate, 120 μl, addition plate; 96-well Whatman 2 ml Uniplate Incubator, 37° C., 5% CO2; Skatron EMBLA-384 Plate Washer; Multimek Pipetting System; Genesis Freedom 200 System; Mosquito System; Temo Nanolitre Pipetting System; and FLIPR^384 Fluorometric Imaging Plate Reader System are used.
# Buffers. Assay Buffer: Hanks Balanced Salt Solution, with 20 mM Hepes, 2.5 mM Probenecid (Sigma P-8761) first dissolved in 1 N NaOH, 1% Bovine Serum Albumin (Sigma A-9647). Dye Loading Buffer: Assay Buffer plus 1% Fetal Bovine Serum and Fluo-4AM/Pluronic Acid Mixture. 2 mM Fluo-4AM ester stock in DMSO (Molecular Probes F-14202) Concentration of 2 μM in buffer for a final concentration of 1 μM in Assay. 20% Pluronic Acid Solution stock, with concentration of 0.04% in Buffer, 0.02% in Assay.
# 65 μL of 2 mM Fluo-4AM are mixed with 130 μL of 20% Pluronic Acid. The resulting solution and 650 μL FBS is added to the assay buffer for a total volume of 65 mL. Positive Controls: 4-Br-A23187: 10 mM in DMSO; final concentration 10 μM. Acetylcholine: 10 mM in water, working stock at both 20 μM and 30 μM in assay buffer, final concentration of 10 μM. This is used to check the maximum stimulation of the CHOK1/hM1 cells. 20 μM (2×) acetylcholine is added in the preincubation part of the assay, and the 30 μM (3×) stock is added in the second part. (EC20)Acetylcholine: 10 mM in water, working stock of 9 nM (3×), and final concentration in assay is 3 nM. This is used after the preincubation with test compounds. Addition of the EC20 Acetylcholine to each well with a test compound will ascertain any modulator activity. 24 wells contain 3 nM Acetylcholine alone as a control.
# Determining Activity of Putative Compounds:
# Screening Plate Compounds are titrated in 96-well plates (columns 2-11), 100% DMSO, started at a concentration of 15 mM (150× stock concentration), and 3-fold serial dilutions using Genesis Freedom200 System. Four 96-well plates are combined into a 384-well plate using Mosquito Nanolitre Pipetting System by transferring 1 μl of serial diluted compounds to each well, and 1 mM acetylcholine (100× stock concentration) were added as a control. Using Temo, 49 μl assay buffer is added to each well of the 384-well plate right before assay.
# In a 96-well Whatman 2 ml Uniplate, 9 nM Acetylcholine (3×) is pipetted into wells corresponding to the screening compounds, and into control wells. The 30 μM acetylcholine control (3×) is added into control wells, and the 3× agonist plate is transferred into a 384 well plate.
# Cells are washed three times with 100 μL of buffer, leaving […] of buffer in each well. Using Multimek, 30 μL of Dye Loading Buffer is added into each well and incubated at 37° C., 5% CO2 for up to one hr.
# After 60 min, the cells are washed three times with 100 μL of buffer, leaving 30 μL of buffer in each well. The cell plate, screening plate, and agonist addition plates are placed on the platform in the FLIPR and the door closed. A signal test to check background fluorescence and basal fluorescence signal is performed. Laser intensity is adjusted if necessary.
# [1] = Table 2, CHOnfat/hM1 cells, FLIPR, read-out: M1 Pot.
# [2] = Table 1, CHOnfat/hM1 cells, FLIPR, read-out: M1 Pot.
# [3] = Table 3, inflection point calculated from the FLIPR values, read-out: IP Value
EC50 [2] [nM],Molecule,EC50 [3] [nM],also measured
240,"O=C1c2cc(CN3C[C@@H](F)[C@H](F)C3)c3ccccc3c2CN1C1CCCCC1O (relative stereo) [Example 29, 5-{[trans-3,4-difluoropyrrolidin-1-yl]methyl}-2-(2-hydroxycyclohexyl)-1,2-dihydro-3H-benzo[e]isoindol-3-one]",,
4900,O=C1c2cc(CN3CCCCC3)c3ccccc3c2CN1[C@H]1CCCC[C@@H]1O [Example 11],,
1300,"CN1CCN(Cc2cc3c(c4ccccc24)CN([C@H]2CCCC[C@@H]2O)C3=O)CC1 [Example 12, 2-[(1S,2S)-2-hydroxycyclohexyl]-5-[(4-methylpiperazin-1-yl)methyl]-1,2-dihydro-3H-benzo[e]isoindol-3-one]",,
560,"CN1CCN(Cc2cc3c(c4ccccc24)CN([C@H]2CCCC[C@@H]2O)C3=O)CC1=O [Example 13, 2-[(1S,2S)-2-hydroxycyclohexyl]-5-[(4-methyl-3-oxopiperazin-1-yl)methyl]-1,2-dihydro-3H-benzo[e]isoindol-3-one]",,
2600,"CC(=O)N1CCN(Cc2cc3c(c4ccccc24)CN(C2CCCCC2O)C3=O)CC1 (stereo not drawn) [Example 14, 5-[(4-acetylpiperazin-1-yl)methyl]-2-(2-hydroxycyclohexyl)-1,2-dihydro-3H-benzo[e]isoindol-3-one]",,

# Second part, the molecule before the results:
Molecule,EC50 [2] [nM],EC50 [3] [nM],also measured
"1-({8-[(1S,2S)-2-hydroxycyclohexyl]-7-oxo-8,9-dihydro-7H-pyrrolo[3,4-h]quinolin-5-yl}methyl)-4-(6-methoxypyridin-2-yl)piperidine-4-carbonitrile [Example 155]",,,EC50 [1]: 520 nM
"1-({8-[(1S,2S)-2-hydroxycyclohexyl]-7-oxo-8,9-dihydro-7H-pyrrolo[3,4-h]quinolin-5-yl}methyl)-4-(6-methoxypyridin-2-yl)piperidine-4-carbonitrile [Example 156]",,,EC50 [1]: 57 nM
"CC1c2c(cc(CN3CCC(C#N)(c4ccccn4)CC3)c3ccccc23)C(=O)N1[C@H]1CCCC[C@@H]1O (single isomer, unassigned) [Example 44]",9.6,,
"CC1c2c(cc(CN3CCC(C#N)(c4ccccn4)CC3)c3ccccc23)C(=O)N1[C@H]1CCCC[C@@H]1O (single isomer, unassigned) [Example 45]",272,,
"CC1c2c(cc(CN3CCC(F)(C#N)CC3)c3cccnc23)C(=O)N1C1CCCCC1O (single isomer, unassigned) [Example 118, 4-fluoro-1-{[8-(2-hydroxycyclohexyl)-9-methyl-7-oxo-8,9-dihydro-7H-pyrrolo[3,4-h]quinolin-5-yl]methyl}piperidine-4-carbonitrile]",,,EC50 [1]: 450 nM
"CC1c2c(cc(CN3CCC(F)(C#N)CC3)c3cccnc23)C(=O)N1C1CCCCC1O (single isomer, unassigned) [Example 119, 4-fluoro-1-{[8-(2-hydroxycyclohexyl)-9-methyl-7-oxo-8,9-dihydro-7H-pyrrolo[3,4-h]quinolin-5-yl]methyl}piperidine-4-carbonitrile]",,,EC50 [1]: 44 nM
"N#CC1(c2ccccn2)CCN(Cc2cc3c(c4ccccc24)CN([C@H]2CCCC[C@@H]2O)C3=O)CC1 [Example 1, 1-({2-[(1S,2S)-2-Hydroxycyclohexyl]-3-oxo-2,3-dihydro-1H-benzo[e]isoindol-5-yl}methyl)-4-(pyridine-2-yl)piperidine-4-carbonitrile]",,10,
"O=C1c2cc(CN3CCC(F)(c4ccccn4)CC3)c3ccccc3c2CN1[C@H]1CCCC[C@@H]1O [Example 2, 5-{[4-Fluoro-4-(pyridine-2-yl)piperidine-1-yl]methyl}-2-[(1S,2S)-2-hydroxycyclohexyl]-1,2-dihydro-3H-benzo[e]isoindol-3-one]",,58,
"CC1c2c(cc(CN3CCC(C#N)(c4ccccn4)CC3)c3ccccc23)C(=O)N1[C@H]1CCCC[C@@H]1O (stereo partly drawn) [Example 3, 1-({2-[(1S,2S)-2-Hydroxycyclohexyl]-1-methyl-3-oxo-2,3-dihydro-1H-benzo[e]isoindol-5-yl}methyl)-4-(pyridine-2-yl)piperidine-4-carbonitrile]",,19,
"Cc1cccc(C2(C#N)CCN(Cc3cc4c(c5ccccc35)CN([C@H]3CCCC[C@@H]3O)C4=O)CC2)n1 [Example 4, 1-({2-[(1S,2S)-2-Hydroxycyclohexyl]-3-oxo-2,3-dihydro-1H-benzo[e]isoindol-5-yl}methyl)-4-(6-methylpyridin-2-yl)piperidine-4-carbonitrile]",,27,
"CCc1cccc(C2(C#N)CCN(Cc3cc4c(c5ccccc35)CN([C@H]3CCCC[C@@H]3O)C4=O)CC2)n1 [Example 5, 4-(6-Ethylpyridin-2-yl)-1-({2-[(1S,2S)-hydroxycyclohexyl]-3-oxo-2,3-dihydro-1H-benzo[e]isoindol-5-yl}methyl)piperidine-4-carbonitrile]",,55,
"COc1cccc(C2(C#N)CCN(Cc3cc4c(c5ccccc35)CN([C@H]3CCCC[C@@H]3O)C4=O)CC2)n1 [Example 6, 1-({2-[(1S,2S)-2-Hydroxycyclohexyl]-3-oxo-2,3-dihydro-1H-benzo[e]isoindol-5-yl}methyl)-4-(6-methoxypyridin-2-yl)piperidine-4-carbonitrile]",,65,
"O=C1c2cc(CN3CCC(F)(F)CC3)c3cccnc3c2CN1[C@H]1CCOC[C@@H]1O [Example 7, 1,5-Anhydro-2,3-dideoxy-3-{5-[(4,4-difluoropiperidin-1-yl)methyl]-7-oxo-7,9-dihydro-8H-pyrrolo[3,4-h]quinolin-8-yl}-L-threo-pentitol]",,147,
"O=C1c2cc(CN3CCC(F)(F)CC3)c3cccnc3c2CN1[C@H]1COCC[C@@H]1O [Example 8, 1,5-Anhydro-2,4-dideoxy-2-{5-[(4,4-difluoropiperidin-1-yl)methyl]-7-oxo-7,9-dihydro-8H-pyrrolo[3,4-h]quinolin-8-yl}-L-threo-pentitol]",,41,
"C=CC1(F)CCN(Cc2cc3c(c4ncccc24)CN([C@H]2CCCC[C@@H]2O)C3=O)CC1 [Example 9, 5-[(4-Ethenyl-4-fluoropiperidin-1-yl)methyl]-8-[(1S,2S)-2-hydroxycyclohexyl]-8,9-dihydro-7H-pyrrolo[3,4-h]quinolin-7-one]",,420,
"CN(C)C(=O)Oc1cccc(N2Cc3c(cc(CN4CCC(F)(F)CC4)c4cccnc34)C2=O)c1 [Example 10, 3-{5-[(4,4-Difluoropiperidin-1-yl)methyl]-7-oxo-7,9-dihydro-8H-pyrrolo[3,4-h]quinolin-8-yl}phenyl dimethylcarbamate]",,,"EC50 (IP Value (nM), Table 3, inflection point calculated from the FLIPR values): 2260 nM"
